Test results from US8178658B2 (Dow AgroSciences, LLC, priority 2008, dated 2012).

Assays:
[1] = system: beet armyworm (BAW; Spodoptera exigua: Lepidoptera); experiment: 96-well microtiter plate-based high throughput (HTS) diet bioassay on beet armyworm (BAW HTS); type: in vivo; details: for BAW HTS: BAW eggs, 12 μg test compound per well, mortality at 6 d post-treatment, mortality class
Procedure, shortened: (§1)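 Two diet formats. HTS: eggs on 96-well diet overlaid with 12 μg compound, held 6 d at 29° C in dark, mean mortality of six replicates. BAW 50: three to five second-instar larvae per well on diet dosed at 50 μg/cm^2, held six days at 25° C under 14:10 light-dark, mortality averaged across eight wells.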

[2] = system: beet armyworm (BAW; Spodoptera exigua: Lepidoptera); experiment: 128-well diet tray assay on beet armyworm (BAW 50); type: in vivo; details: for BAW 50 ug/cm2: 128-well diet tray assay, 50 μg/cm^2 of test compound on diet, second instar BAW larvae, mortality class
Procedure, shortened: as §1

[3] = 96-well microtiter plate HTS diet assay

Row | SMILES | BAW HTS ([1]; 96-well HTS diet assay) | BAW HTS [1, 3] | BAW 50 ug/cm2 [2] | pest or weed control at 12 µg/well, 12 µg/well ([1]; Spodoptera exigua, 144 h, read-out: BAW HTS) | pest or weed control at 50 µg/cm2, 50 µg/cm2 ([2]; Spodoptera exigua, 144 h, read-out: BAW 50 ug/cm2)
1 | C=CCO[C@@H]1[C@@H](OC)[C@H](C)O[C@@H](OC(=O)Nc2ccc(-c3ncn(-c4ccc(OC(F)(F)F)cc4)n3)cc2)[C@@H]1OC [Compound 205] | A (the compound was tested and at least 50 percent mortality was observed) | A (the compound was tested and at least 50 percent mortality was observed) | A (the compound was tested and at least 50 percent mortality was observed) | – | –
2 | CCO[C@@H]1[C@@H](OCC)[C@H](C)O[C@@H](OC(=O)Nc2ccc(-c3ncn(-c4ccc(OC(F)(F)C(F)(F)F)cc4)n3)cc2)[C@@H]1OCC [Compound 206] | A (the compound was tested and at least 50 percent mortality was observed) | A (the compound was tested and at least 50 percent mortality was observed) | A (the compound was tested and at least 50 percent mortality was observed) | – | –
3 | CCCO[C@@H]1[C@@H](OC)[C@H](C)O[C@@H](OC(=O)Nc2ccc(-c3ncn(-c4ccc(OC(F)(F)C(F)(F)F)cc4)n3)cc2)[C@@H]1OC [Compound 207, {4-[1-(4-pentafluoroethyloxyphenyl)-1H-[1,2,4]triazol-3-yl]-phenyl}-carbamic acid (2S,3R,4R,5S,6S)-4-propoxy-3,5-dimethoxy-6-methyl-tetrahydropyran-2-yl ester] | – | B (either (1) the compound was tested and less than 50 percent mortality was observed or (2) the compound was not tested) | A (the compound was tested and at least 50 percent mortality was observed) | < 50% | > 50%
4 | CO[C@@H]1[C@@H](OC)[C@H](C)O[C@H](OC(=O)Nc2ccc(-c3ncn(-c4ccc(OC(F)(F)C(F)(F)F)cc4)n3)cc2)[C@@H]1OC [Compound 208] | A (the compound was tested and at least 50 percent mortality was observed) | A (the compound was tested and at least 50 percent mortality was observed) | A (the compound was tested and at least 50 percent mortality was observed) | – | –
5 | CCCO[C@@H]1[C@@H](OC)[C@H](C)O[C@@H](OC(=O)Nc2ccc(-c3ncn(-c4ccc(OC(F)(F)F)cc4)n3)cc2)[C@@H]1OC [Compound 209] | A (the compound was tested and at least 50 percent mortality was observed) | A (the compound was tested and at least 50 percent mortality was observed) | A (the compound was tested and at least 50 percent mortality was observed) | – | –
6 | CCO[C@@H]1[C@@H](OC)[C@H](C)O[C@H](OC(=O)Nc2ccc(-c3ncn(-c4ccc(OC(F)(F)F)cc4)n3)cc2)[C@@H]1OC [Compound 210] | A (the compound was tested and at least 50 percent mortality was observed) | A (the compound was tested and at least 50 percent mortality was observed) | A (the compound was tested and at least 50 percent mortality was observed) | – | –
7 | CCCO[C@@H]1[C@@H](OC)[C@H](C)O[C@@H](OC(=O)Nc2ccc(-c3ncn(-c4ccc(OC(F)(F)C(F)(F)C(F)(F)F)cc4)n3)cc2)[C@@H]1OC [Compound 216] | A (the compound was tested and at least 50 percent mortality was observed) | A (the compound was tested and at least 50 percent mortality was observed) | A (the compound was tested and at least 50 percent mortality was observed) | – | –
8 | CCO[C@@H]1[C@@H](OC)[C@H](C)O[C@@H](OC(=O)Nc2ccc(-c3nc(CC(C)C)n(-c4ccc(OC(F)(F)F)cc4)n3)cc2)[C@@H]1OC [Compound 219] | B (either (1) the compound was tested and less than 50 percent mortality was observed or (2) the compound was not tested) | B (either (1) the compound was tested and less than 50 percent mortality was observed or (2) the compound was not tested) | A (the compound was tested and at least 50 percent mortality was observed) | – | –
9 | C=C(C)c1nc(-c2ccc(NC(=O)O[C@@H]3O[C@@H](C)[C@H](OC)[C@@H](OCC)[C@H]3OC)cc2)nn1-c1ccc(OC(F)(F)F)cc1 [Compound 220] | B (either (1) the compound was tested and less than 50 percent mortality was observed or (2) the compound was not tested) | B (either (1) the compound was tested and less than 50 percent mortality was observed or (2) the compound was not tested) | A (the compound was tested and at least 50 percent mortality was observed) | – | –
10 | CCO[C@@H]1[C@@H](OC)[C@H](C)O[C@@H](OC(=O)Nc2ccc(-c3nc(CCSC)n(-c4ccc(OC(F)(F)F)cc4)n3)cc2)[C@@H]1OC [Compound 221] | B (either (1) the compound was tested and less than 50 percent mortality was observed or (2) the compound was not tested) | B (either (1) the compound was tested and less than 50 percent mortality was observed or (2) the compound was not tested) | A (the compound was tested and at least 50 percent mortality was observed) | – | –
11 | CCO[C@@H]1[C@@H](OC)[C@H](C)O[C@@H](OC(=O)Nc2ccc(-c3nc(C(F)(F)F)n(-c4ccc(OC(F)(F)F)cc4)n3)cc2)[C@@H]1OC [Compound 222] | B (either (1) the compound was tested and less than 50 percent mortality was observed or (2) the compound was not tested) | B (either (1) the compound was tested and less than 50 percent mortality was observed or (2) the compound was not tested) | A (the compound was tested and at least 50 percent mortality was observed) | – | –
12 | CCO[C@@H]1[C@@H](OC)[C@H](C)O[C@@H](OC(=O)Nc2ccc(-c3ncn(-c4ccc(OC(F)(F)F)cc4)n3)cc2Br)[C@@H]1OC [Compound 223] | B (either (1) the compound was tested and less than 50 percent mortality was observed or (2) the compound was not tested) | B (either (1) the compound was tested and less than 50 percent mortality was observed or (2) the compound was not tested) | A (the compound was tested and at least 50 percent mortality was observed) | – | –
13 | CCO[C@@H]1[C@@H](OC)[C@H](C)O[C@@H](OC(=O)Nc2ccc(-c3ncn(-c4ccc(OC(F)(F)C(F)(F)F)cc4)n3)cc2Br)[C@@H]1OC [Compound 224] | B (either (1) the compound was tested and less than 50 percent mortality was observed or (2) the compound was not tested) | B (either (1) the compound was tested and less than 50 percent mortality was observed or (2) the compound was not tested) | A (the compound was tested and at least 50 percent mortality was observed) | – | –
14 | CCO[C@@H]1[C@@H](OC)[C@H](C)O[C@@H](OC(=O)Nc2ccc(-c3ncn(-c4ccc(OC(F)(F)C(F)(F)C(F)(F)F)cc4)n3)cc2)[C@@H]1OC [Compound 225] | B (either (1) the compound was tested and less than 50 percent mortality was observed or (2) the compound was not tested) | B (either (1) the compound was tested and less than 50 percent mortality was observed or (2) the compound was not tested) | A (the compound was tested and at least 50 percent mortality was observed) | – | –
15 | CCO[C@@H]1[C@@H](OC)[C@H](C)O[C@@H](OC(=O)Nc2ccc(-n3c(C(=O)OC)nn(-c4ccc(OC(F)(F)F)cc4)c3=O)cc2)[C@@H]1OC [Compound 226] | B (either (1) the compound was tested and less than 50 percent mortality was observed or (2) the compound was not tested) | B (either (1) the compound was tested and less than 50 percent mortality was observed or (2) the compound was not tested) | B (either (1) the compound was tested and less than 50 percent mortality was observed or (2) the compound was not tested) | – | –
16 | CCO[C@@H]1[C@@H](OC)[C@H](C)O[C@H](OC(=O)Nc2ccc(-n3c(C(=O)OC)nn(-c4ccc(OC(F)(F)F)cc4)c3=O)cc2)[C@@H]1OC [Compound 227] | B (either (1) the compound was tested and less than 50 percent mortality was observed or (2) the compound was not tested) | B (either (1) the compound was tested and less than 50 percent mortality was observed or (2) the compound was not tested) | B (either (1) the compound was tested and less than 50 percent mortality was observed or (2) the compound was not tested) | – | –
17 | CCO[C@@H]1[C@@H](OC)[C@H](C)O[C@@H](OC(=O)Nc2ccc(-n3cnn(-c4ccc(OC(F)(F)F)cc4)c3=O)cc2)[C@@H]1OC [Compound 228] | B (either (1) the compound was tested and less than 50 percent mortality was observed or (2) the compound was not tested) | B (either (1) the compound was tested and less than 50 percent mortality was observed or (2) the compound was not tested) | B (either (1) the compound was tested and less than 50 percent mortality was observed or (2) the compound was not tested) | – | –
